The values below come from patent publication US12673936B2, “Isoindolinone compounds, and uses thereof” (HANGZHOU GLUBIO PHARMACEUTICAL CO., LTD., priority 2021, dated 2026).

As a reminder, the Dmax is the greatest extent of degradation seen. Lower therefore signals shallow degradation. As usually defined, the DC50 is the midpoint of the concentration-degradation curve. High values mean degradation only at high concentration, low ones degradation at low concentration.

For one assay, the target named is HiBiT tagged GSPT1 (Homo sapiens, UniProt P15170+Q96SW2). Description: GSPT1 degradation assay (HiBiT assay). The assay is classed as cell-based. The note with it: 20 hours, maximum GSPT1 degradation; for Dmax: HT-1080, HT-1080 cells; for HiBiT GSPT1: Dmax: HT-1080 cells. On the procedure:
(§1) CK1α and GSPT1 Degradation Assay (HiBiT Assay) The following is an example of an assay that can be used to determine the dose-dependent CK1α and GSPT1 degradation activities of test compounds in a human cell line such as HT-1080 ([…]). HT-1080 cells stably overexpressing wild-type CRBN, GSPT1A(1-138)/G575N mutant and HiBiT tagged CK1α or GSPT1 were seeded into 384-well plates (Cat #3764, Corning) pre-spotted with DMSO or test compounds. Increasing concentrations of test compounds (ranging from 3.162×10^-4 μM to 10 μM at a 3.16-fold increment) or DMSO were dispensed into an empty 384-well plate using an Echo Acoustic Liquid Handler (Beckman Coulter). About 10,000 cells in complete DMEM cell culture media were seeded per well. […] Luminescence was then measured with an EnVision plate reader (PerkinElmer) or a PHERAstar plate reader (BMG Labtech). All CK1α or GSPT1 degradation curves were processed using Collaborative Drug Discovery Vault softwares (Burlingame, CA., www.collaborativedrug.com). CK1α or GSPT1 levels in compound-treated wells were normalized to that of DMSO control and expressed as Percent of Control (PoC, y). […]
On the technique in general: With HiBiT, luminescence reflects the tagged protein that the partner subunit can reach.

The target in the next assay is HiBiT tagged CK1α (Homo sapiens, UniProt P48729+Q96SW2). Description: CK1α degradation assay (HiBiT assay). Type of assay: cell-based. The note with it: 20 hours; for Dmax: HT-1080, HT-1080 cells; for Dmax / HiBiT CK1α: Dmax: maximum CK1α degradation; for DC50 / HiBiT CK1α: Dmax: HT-1080 cells; for DC50: concentration at 50% CK1α degradation. On the procedure:
as §1

HiBiT tagged CK1α, sequence (P48729 whole entry): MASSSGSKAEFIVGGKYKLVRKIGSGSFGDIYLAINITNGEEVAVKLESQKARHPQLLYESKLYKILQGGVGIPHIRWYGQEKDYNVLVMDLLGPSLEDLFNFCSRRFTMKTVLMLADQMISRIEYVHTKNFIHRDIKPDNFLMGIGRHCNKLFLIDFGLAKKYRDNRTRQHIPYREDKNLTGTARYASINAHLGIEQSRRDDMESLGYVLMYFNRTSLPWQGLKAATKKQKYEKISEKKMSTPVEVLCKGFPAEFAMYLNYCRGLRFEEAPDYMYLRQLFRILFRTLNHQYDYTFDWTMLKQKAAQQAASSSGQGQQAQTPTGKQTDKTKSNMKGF
HiBiT tagged CK1α, sequence (Q96SW2 whole entry): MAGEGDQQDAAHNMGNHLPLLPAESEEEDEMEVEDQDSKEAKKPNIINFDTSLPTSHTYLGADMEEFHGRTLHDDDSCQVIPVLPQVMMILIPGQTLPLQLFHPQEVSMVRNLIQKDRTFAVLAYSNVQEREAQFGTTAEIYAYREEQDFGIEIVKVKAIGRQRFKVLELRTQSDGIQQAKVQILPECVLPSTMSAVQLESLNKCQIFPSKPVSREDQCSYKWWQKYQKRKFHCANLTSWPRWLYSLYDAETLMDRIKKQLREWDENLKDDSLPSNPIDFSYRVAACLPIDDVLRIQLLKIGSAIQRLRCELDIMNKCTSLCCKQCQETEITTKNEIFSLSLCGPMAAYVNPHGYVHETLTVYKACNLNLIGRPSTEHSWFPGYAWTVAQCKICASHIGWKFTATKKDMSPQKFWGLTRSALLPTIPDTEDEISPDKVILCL
HiBiT tagged CK1α, sequence (Q16531 whole entry partner): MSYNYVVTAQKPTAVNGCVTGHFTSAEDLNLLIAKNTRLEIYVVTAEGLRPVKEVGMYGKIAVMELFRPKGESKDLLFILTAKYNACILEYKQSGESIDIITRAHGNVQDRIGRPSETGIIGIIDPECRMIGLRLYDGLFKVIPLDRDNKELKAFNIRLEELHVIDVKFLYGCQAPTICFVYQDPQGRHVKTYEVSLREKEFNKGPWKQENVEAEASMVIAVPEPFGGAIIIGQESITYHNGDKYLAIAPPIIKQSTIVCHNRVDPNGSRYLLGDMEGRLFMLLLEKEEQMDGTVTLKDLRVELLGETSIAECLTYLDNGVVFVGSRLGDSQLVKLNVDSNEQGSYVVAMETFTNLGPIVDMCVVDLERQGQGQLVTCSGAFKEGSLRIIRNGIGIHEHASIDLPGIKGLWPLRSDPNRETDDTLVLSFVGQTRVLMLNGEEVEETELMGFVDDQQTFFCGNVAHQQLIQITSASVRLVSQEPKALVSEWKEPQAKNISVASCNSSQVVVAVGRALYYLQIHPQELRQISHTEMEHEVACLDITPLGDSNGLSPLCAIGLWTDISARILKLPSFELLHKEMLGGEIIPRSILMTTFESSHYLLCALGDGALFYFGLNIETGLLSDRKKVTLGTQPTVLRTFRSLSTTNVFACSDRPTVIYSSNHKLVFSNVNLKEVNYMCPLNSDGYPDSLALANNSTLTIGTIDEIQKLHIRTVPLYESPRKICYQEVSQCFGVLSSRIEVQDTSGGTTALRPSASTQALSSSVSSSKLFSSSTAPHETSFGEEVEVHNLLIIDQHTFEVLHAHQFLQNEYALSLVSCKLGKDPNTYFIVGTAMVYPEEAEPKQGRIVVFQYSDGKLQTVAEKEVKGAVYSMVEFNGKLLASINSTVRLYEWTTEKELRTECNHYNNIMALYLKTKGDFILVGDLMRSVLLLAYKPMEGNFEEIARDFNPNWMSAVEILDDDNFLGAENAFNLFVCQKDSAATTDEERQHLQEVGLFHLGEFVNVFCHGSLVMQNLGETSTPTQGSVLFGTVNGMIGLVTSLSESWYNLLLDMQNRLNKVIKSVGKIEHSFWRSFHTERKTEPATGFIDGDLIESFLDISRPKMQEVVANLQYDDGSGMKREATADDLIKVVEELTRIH
HiBiT tagged GSPT1, sequence (P15170 whole entry): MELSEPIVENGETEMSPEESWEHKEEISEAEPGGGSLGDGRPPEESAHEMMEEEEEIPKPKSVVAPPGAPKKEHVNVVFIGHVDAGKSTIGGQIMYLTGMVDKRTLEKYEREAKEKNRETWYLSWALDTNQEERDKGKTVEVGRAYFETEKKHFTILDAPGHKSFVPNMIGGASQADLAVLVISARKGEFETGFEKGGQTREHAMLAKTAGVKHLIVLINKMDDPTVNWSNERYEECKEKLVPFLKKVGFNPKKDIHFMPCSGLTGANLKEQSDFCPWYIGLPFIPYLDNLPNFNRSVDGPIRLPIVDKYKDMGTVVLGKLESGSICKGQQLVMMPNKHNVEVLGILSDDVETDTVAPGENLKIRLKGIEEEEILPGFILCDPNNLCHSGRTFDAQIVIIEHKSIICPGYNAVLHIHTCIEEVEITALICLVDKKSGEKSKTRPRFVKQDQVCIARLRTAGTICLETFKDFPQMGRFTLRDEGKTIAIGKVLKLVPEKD
HiBiT tagged GSPT1, sequence (Q96SW2 whole entry): as the sequence (Q96SW2 whole entry) above
HiBiT tagged GSPT1, sequence (Q16531 whole entry partner): as the sequence (Q16531 whole entry partner) above

As for `O=C1CCC(N2Cc3cc(C(=O)N[C@H](c4ccc(F)cc4)C4COC4)ccc3C2=O)C(=O)N1` (stereo in doubt) [Compound 58, 2-(2,6-dioxo-3-piperidyl)-N-[(*S)-(4-fluorophenyl)-(oxetan-3-yl)methyl]-1-oxo-isoindoline-5-carboxamide], the Dmax at HiBiT tagged GSPT1 worked out at 16.5%; on HiBiT tagged CK1α, 49.7%.
In the case of `O=C1CCC(N2Cc3cc(C(=O)N[C@@H](c4ccc(F)cc4)C4COC4)ccc3C2=O)C(=O)N1` (stereo in doubt) [Compound 59, 2-(2,6-dioxopiperidin-3-yl)-N-((*R)-(4-fluorophenyl)(oxetan-3-yl)methyl)-1-oxoisoindoline-5-carboxamide], the results for the Dmax at HiBiT tagged GSPT1 and at HiBiT tagged CK1α were 7.93% and 32.2%, respectively.
`N#Cc1ccccc1[C@@H](NC(=O)c1ccc2c(c1)CN(C1CCC(=O)NC1=O)C2=O)C1CC1` (stereo in doubt) [Compound 64, N-((*S)-(2-cyanophenyl)(cyclopropyl)methyl)-2-(2,6-dioxopiperidin-3-yl)-1-oxoisoindoline-5-carboxamide] came in with a Dmax at HiBiT tagged GSPT1 of 27.9%. On HiBiT tagged CK1α, the Dmax amounted to 66.7% and the DC50 worked out at 162 nM.
`O=C1CCC(N2Cc3cc(C(=O)N[C@@H](c4c(F)cccc4F)C4CCC4)ccc3C2=O)C(=O)N1` (stereo in doubt) [Compound 66, N-((*R)-cyclobutyl(2,6-difluorophenyl)methyl)-2-(2,6-dioxopiperidin-3-yl)-1-oxoisoindoline-5-carboxamide] showed a maximal degradation (Dmax) at HiBiT tagged GSPT1 of 55.3%. Besides, on HiBiT tagged CK1α, the Dmax worked out at 67.9% and the DC50 stood at 118 nM.
Regarding `O=C1CCC(N2Cc3cc(C(=O)N[C@H](c4c(F)cccc4F)C4CCC4)ccc3C2=O)C(=O)N1` (stereo in doubt) [Compound 67, N-((*S)-cyclobutyl(2,6-difluorophenyl)methyl)-2-(2,6-dioxopiperidin-3-yl)-1-oxoisoindoline-5-carboxamide], the Dmax at HiBiT tagged GSPT1 was 31.7%. At HiBiT tagged CK1α, this molecule came in with a Dmax of 76.4% and a DC50 of 40 nM.
Take `O=C1CCC(N2Cc3cc(C(=O)N[C@@H](c4cccc(Cl)c4)C4CCC4)ccc3C2=O)C(=O)N1` (stereo in doubt) [Compound 68, N-((3-chlorophenyl)(cyclobutyl)methyl)-2-(2,6-dioxopiperidin-3-yl)-1-oxoisoindoline-5-carboxamide]: the values for the Dmax at HiBiT tagged GSPT1 and on HiBiT tagged CK1α were 48.3% and 55.4%, respectively. Further, the DC50 on HiBiT tagged CK1α amounted to 789 nM.
Regarding `O=C1CCC(N2Cc3cc(C(=O)N[C@H](c4c(F)cccc4Cl)C4CCC4)ccc3C2=O)C(=O)N1` (stereo in doubt) [Compound 69, N-((*S)-(2-chloro-6-fluorophenyl)(cyclobutyl)methyl)-2-(2,6-dioxopiperidin-3-yl)-1-oxoisoindoline-5-carboxamide], the “HiBiT GSPT1: Dmax” value at HiBiT tagged GSPT1 stood at 26%. In addition, on HiBiT tagged CK1α, the DC50 amounted to 62.7 nM and the “HiBiT CK1α: Dmax” value is given as 74%.
The matching figures for `O=C1CCC(N2Cc3cc(C(=O)N[C@@H](c4c(F)cccc4Cl)C4CCC4)ccc3C2=O)C(=O)N1` (stereo in doubt) [Compound 70, N-((*R)-(2-chloro-6-fluorophenyl)(cyclobutyl)methyl)-2-(2,6-dioxopiperidin-3-yl)-1-oxoisoindoline-5-carboxamide]: 58%, 50.3 nM and 73.9%.
On HiBiT tagged GSPT1, `O=C1CCC(N2Cc3cc(C(=O)N[C@H](c4ncc(F)cc4Cl)C4CC4)ccc3C2=O)C(=O)N1` (stereo in doubt) [Compound 71, N-((*S)-(3-chloro-5-fluoropyridin-2-yl)(cyclopropyl)methyl)-2-(2,6-dioxopiperidin-3-yl)-1-oxoisoindoline-5-carboxamide] showed a Dmax of 19.1%. At HiBiT tagged CK1α, this molecule returned a Dmax of 61.7% and a DC50 of 455 nM.
In the same order, the values of `O=C1CCC(N2Cc3cc(C(=O)N[C@@H](c4ccc(F)cc4Cl)C4CCC4)ccc3C2=O)C(=O)N1` (stereo in doubt) [Compound 72, N-((*R)-(2-chloro-4-fluorophenyl)(cyclobutyl)methyl)-2-(2,6-dioxopiperidin-3-yl)-1-oxoisoindoline-5-carboxamide] are 45.2%, 65.5% and 132 nM.
As for `O=C1CCC(N2Cc3cc(C(=O)N[C@H](c4ccc(F)cc4Cl)C4CCC4)ccc3C2=O)C(=O)N1` (stereo in doubt) [Compound 73, N-((*S)-(2-chloro-4-fluorophenyl)(cyclobutyl)methyl)-2-(2,6-dioxopiperidin-3-yl)-1-oxoisoindoline-5-carboxamide], at HiBiT tagged GSPT1, the Dmax was 30.4%. For the same molecule, on HiBiT tagged CK1α, the Dmax was determined as 71.4% and the DC50 amounted to 73.5 nM.
Molecule `O=C1CCC(N2Cc3cc(C(=O)N[C@@H](c4ccc(F)cc4Cl)C4CC4)ccc3C2=O)C(=O)N1` (stereo in doubt) [Compound 74, N-((*R)-(2-chloro-4-fluorophenyl)(cyclopropyl)methyl)-2-(2,6-dioxopiperidin-3-yl)-1-oxoisoindoline-5-carboxamide] registered a Dmax at HiBiT tagged GSPT1 of 62.3%. On HiBiT tagged CK1α, the Dmax was 59.2% and it took 233 nM to reach half-maximal degradation (DC50).
At HiBiT tagged GSPT1, `O=C1CCC(N2Cc3cc(C(=O)N[C@@H](c4ccc(F)cc4)C4CCC4)ccc3C2=O)C(=O)N1` (stereo in doubt) [Compound 75, N-((*R)-cyclobutyl(4-fluorophenyl)methyl)-2-(2,6-dioxopiperidin-3-yl)-1-oxoisoindoline-5-carboxamide] registered a Dmax of 24.1%. On HiBiT tagged CK1α, this molecule gave a Dmax of 50.4% and a DC50 of 3880 nM.
For `O=C1CCC(N2Cc3cc(C(=O)N[C@@H](c4ccc(Cl)cn4)C4CCC4)ccc3C2=O)C(=O)N1` (stereo in doubt) [Compound 77, N—((*R)-(5-chloropyridin-2-yl)(cyclobutyl)methyl)-2-(2,6-dioxopiperidin-3-yl)-1-oxoisoindoline-5-carboxamide], the “HiBiT GSPT1: Dmax” value at HiBiT tagged GSPT1 was 23.5%. Besides, the “HiBiT CK1α: Dmax” value on HiBiT tagged CK1α amounted to 41.1%.
On to `O=C1CCC(N2Cc3cc(C(=O)N[C@H](c4ncc(Cl)cc4F)C4CCC4)ccc3C2=O)C(=O)N1` (stereo in doubt) [Compound 80, N-((*S)-(5-chloro-3-fluoropyridin-2-yl)(cyclobutyl)methyl)-2-(2,6-dioxopiperidin-3-yl)-1-oxoisoindoline-5-carboxamide], for which the Dmax at HiBiT tagged GSPT1 was determined as 14.2%. On HiBiT tagged CK1α, this molecule registered a Dmax of 61.1% and a DC50 of 652 nM.
The molecule `O=C1CCC(N2Cc3cc(C(=O)N[C@H](c4ncc(F)cc4Cl)C4CCC4)ccc3C2=O)C(=O)N1` (stereo in doubt) [Compound 81, N-((*S)-(3-chloro-5-fluoropyridin-2-yl)(cyclobutyl)methyl)-2-(2,6-dioxopiperidin-3-yl)-1-oxoisoindoline-5-carboxamide] registered a Dmax on HiBiT tagged GSPT1 of 18.4%. Further, at HiBiT tagged CK1α, the Dmax is 62.1% and the DC50 came to 153 nM.
The matching figures for `O=C1CCC(N2Cc3cc(C(=O)N[C@H](c4ncccc4F)C4(F)CCC4)ccc3C2=O)C(=O)N1` (stereo in doubt) [Compound 88, 2-(2,6-dioxopiperidin-3-yl)-N-((*R)-(1-fluorocyclobutyl)(3-fluoropyridin-2-yl)methyl)-1-oxoisoindoline-5-carboxamide]: 14.9%, 55.4% and 394 nM.
